The results in this text go back to ChEMBL document CHEMBL1201862, “PubChem BioAssay data set” (2004).

Structures are written as SMILES. Calls of active or inactive are those of the source. Where only a bound is given, the exact number is not on record here.

Assay [1] can be described thus: decrease of insulin promoter-GFP reporter – imaging, high-content screening, mouse beta cells (AID 1628). As to conditions: MIN6. It is filed as functional.
A short description of assay [2]: MIN6 cell viability loss – mouse insulinoma, cytotoxicity control, dose response (AID 2122).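 Further: confirmatory high-throughput counterscreen run to flag cytotoxic compounds.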 It is filed as functional.
The target of the next assay is Protein Wnt-3a (Mus musculus, UniProt P27467). As to the kind of experiment: antagonism of Wnt3a pathway luciferase reporter – Wnt-LIGHT cells, luminescence, selectivity assay for Gli-SUFU antagonist project, dose response (AID 651570).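 Further: Wnt-LIGHT reporter cells stimulated with conditioned medium from Wnt3a-producing cells.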 It is filed as functional. As to conditions: read-out: IC50_Mean.
Chain of Protein Wnt-3a (P27467 whole entry): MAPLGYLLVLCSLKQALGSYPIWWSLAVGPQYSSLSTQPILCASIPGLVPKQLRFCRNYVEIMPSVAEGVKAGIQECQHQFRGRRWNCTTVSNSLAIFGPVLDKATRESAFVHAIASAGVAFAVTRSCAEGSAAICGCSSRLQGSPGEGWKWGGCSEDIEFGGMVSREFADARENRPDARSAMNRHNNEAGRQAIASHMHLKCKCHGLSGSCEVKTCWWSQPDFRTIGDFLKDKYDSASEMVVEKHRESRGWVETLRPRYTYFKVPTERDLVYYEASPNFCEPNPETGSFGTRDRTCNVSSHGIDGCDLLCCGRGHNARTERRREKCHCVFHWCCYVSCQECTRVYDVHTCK
Assay [3] can be described thus: microbe, parasite or virus in culture. It is filed as functional. As to conditions: Mycobacterium tuberculosis.
Another assay concerns the target Exodeoxyribonuclease V (Escherichia coli (strain K12), UniProt P04993+P07648+P08394). As to the kind of experiment: RecBCD inhibition via phage-restricted bacterial growth – absorbance, V66 E. coli, mutant T4 phage, counter-screen for AddAB inhibitor project, dose response (AID 492957). Type of assay: functional, cell-based, Escherichia coli str. K-12 substr. MG1655. (A counterscreen serves to expose hits that act by an unwanted route or on another target.)

A short description of assay [4]: Luminescence Cell-Based Dose Retest to Confirm Inhibitors of Cancer Stem Cells. [Related pubchem assays (depositor defined):AID2717, AID2721]. It is filed as functional. As to conditions: Homo sapiens.
Assay [5] in a line: Counterscreen for AddAB inhibitors: absorbance-based bacterial cell-based high throughput dose response assay for inhibitors of bacterial viability. [Related pubchem assays (depositor defined):AID435030, AID449728, AID449731, AID488942, AID488955, AID488956]. Type of assay: functional.
Assay [6] addresses Lysine-specific demethylase 4C (Homo sapiens, UniProt Q9H3R0). In words: inhibition of JMJD2C H3K9me3 demethylation – biochemical, DELFIA europium, cherry-picked samples, dose response (AID 488835). It is filed as functional.
The target of assay [7] is G-protein coupled receptor 55 (Homo sapiens, UniProt Q9Y2T6). In words: blockers of GPR55 signalling, imaged – imaging, image-based, counter-screen for GPR35 antagonist project, SAR follow-up (AID 2397). Type of assay: functional.
Chain of G-protein coupled receptor 55 (Q9Y2T6 whole entry): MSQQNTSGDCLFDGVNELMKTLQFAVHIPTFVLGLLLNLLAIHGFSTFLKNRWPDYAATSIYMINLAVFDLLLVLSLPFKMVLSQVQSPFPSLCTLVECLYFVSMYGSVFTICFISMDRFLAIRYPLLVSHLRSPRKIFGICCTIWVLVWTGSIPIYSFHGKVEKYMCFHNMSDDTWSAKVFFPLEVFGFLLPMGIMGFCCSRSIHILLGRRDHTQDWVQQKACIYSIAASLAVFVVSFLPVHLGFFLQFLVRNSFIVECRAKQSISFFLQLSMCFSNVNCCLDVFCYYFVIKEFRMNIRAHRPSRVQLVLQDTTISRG
The target of assay [8] is Voltage-dependent T-type calcium channel subunit alpha-1H (Homo sapiens, UniProt O95180). As to the kind of experiment: inhibition of CACNA1H calcium flux – cell-based, SynthLib3 library, HEK293 Cav3.2, fluorescence (AID 493041). Type of assay: functional. For orientation: Calcium flux is commonly read through the fluorescence of an indicator in the cells.
Assay [9] in a line: viability of uninfected HEp-2 cells – cell-based, HTS, cytotoxicity control for RSV inhibitor project, dose response (AID 2410). It is filed as functional. As to conditions: human respiratory syncytial virus.
Assay [10] deals with Intestinal-type alkaline phosphatase (Mus musculus, UniProt P24822). As to the kind of experiment: PubChem AID 488785. It is filed as functional.
Chain of Intestinal-type alkaline phosphatase (Mus musculus, UniProt P24822) (P24822 whole entry): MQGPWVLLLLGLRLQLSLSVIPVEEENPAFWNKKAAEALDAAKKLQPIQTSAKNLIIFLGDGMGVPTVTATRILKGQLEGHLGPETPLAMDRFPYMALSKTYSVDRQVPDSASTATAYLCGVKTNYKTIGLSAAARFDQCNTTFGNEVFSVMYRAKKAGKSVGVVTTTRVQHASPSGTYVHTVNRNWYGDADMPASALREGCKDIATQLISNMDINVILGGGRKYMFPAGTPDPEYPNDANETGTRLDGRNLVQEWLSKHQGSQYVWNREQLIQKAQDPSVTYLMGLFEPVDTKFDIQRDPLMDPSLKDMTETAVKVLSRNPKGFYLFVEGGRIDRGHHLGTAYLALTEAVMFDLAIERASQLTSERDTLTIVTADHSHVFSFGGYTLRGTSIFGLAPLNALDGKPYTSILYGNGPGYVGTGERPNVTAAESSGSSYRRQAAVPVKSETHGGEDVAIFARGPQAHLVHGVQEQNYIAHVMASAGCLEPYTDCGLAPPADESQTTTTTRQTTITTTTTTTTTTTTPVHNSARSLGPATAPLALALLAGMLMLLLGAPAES
Assay [11] addresses T1, Alkaline phosphatase, tissue-nonspecific isozyme (Homo sapiens, UniProt P05186).
T1 sequence (P05186 whole entry): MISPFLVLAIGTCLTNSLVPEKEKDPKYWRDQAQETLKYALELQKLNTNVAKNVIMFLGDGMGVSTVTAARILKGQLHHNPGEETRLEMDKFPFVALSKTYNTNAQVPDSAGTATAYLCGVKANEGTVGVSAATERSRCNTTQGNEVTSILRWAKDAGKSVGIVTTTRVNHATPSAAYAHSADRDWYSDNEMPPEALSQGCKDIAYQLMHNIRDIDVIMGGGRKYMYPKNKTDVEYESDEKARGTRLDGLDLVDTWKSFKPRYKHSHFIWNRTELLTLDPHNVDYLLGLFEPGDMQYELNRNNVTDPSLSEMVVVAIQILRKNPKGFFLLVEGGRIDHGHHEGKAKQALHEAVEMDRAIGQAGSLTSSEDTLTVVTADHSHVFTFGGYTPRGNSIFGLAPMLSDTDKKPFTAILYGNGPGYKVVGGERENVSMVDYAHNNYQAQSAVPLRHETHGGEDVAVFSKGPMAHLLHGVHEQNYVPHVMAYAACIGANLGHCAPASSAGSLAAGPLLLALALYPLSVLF
In words: TNAP enzyme inhibition by screening hits, dose response, selectivity assay for mouse IAP inhibitor project, biochemical, human TNAP, uHTS hits (AID 488906). It is filed as functional.

Assay [12] concerns the target Intestinal-type alkaline phosphatase (Homo sapiens, UniProt P09923). In words: inhibition of human intestinal alkaline phosphatase – biochemical, dose response (AID 488876). It is filed as functional.
For a further assay, the system named is Vero. In words: viability of Vero cells under compound – cytotoxicity control for flavivirus capping enzyme inhibitors (AID 588742). Type of assay: functional. As to conditions: Chlorocebus sabaeus.
The nature of assay [13]: cells. It is filed as functional, cell-based.
The target in assay [14] is T2, Trace amine-associated receptor 1 (Homo sapiens, UniProt Q96RJ0).
T2 sequence (Q96RJ0 whole entry): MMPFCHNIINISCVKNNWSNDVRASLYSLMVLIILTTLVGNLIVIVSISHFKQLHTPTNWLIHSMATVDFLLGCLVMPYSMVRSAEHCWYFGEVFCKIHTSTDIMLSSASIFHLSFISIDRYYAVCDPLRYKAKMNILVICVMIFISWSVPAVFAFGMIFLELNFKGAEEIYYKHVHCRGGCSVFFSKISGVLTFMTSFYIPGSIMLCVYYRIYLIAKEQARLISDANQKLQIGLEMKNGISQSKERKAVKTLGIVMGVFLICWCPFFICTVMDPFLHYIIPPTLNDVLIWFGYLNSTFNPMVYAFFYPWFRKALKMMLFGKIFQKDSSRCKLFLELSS
As to the kind of experiment: Fluorescence-based cell-based high throughput dose response assay to identify agonists of the human trace amine associated receptor 1 (TAAR1). It is filed as functional.

Assay [15] deals with T2, Trace amine-associated receptor 1. As to the kind of experiment: Counterscreen for agonists of the human trace amine associated receptor 1 (hTAAR1): Fluorescence-based cell-based high throughput dose response assay to identify hTAAR1 agonist that also desensitize TAAR1 receptor response. Type of assay: functional.
Assay [16] can be described thus: cells. Type of assay: functional, cell-based. This is another data set of the same source.
Another assay deals with Caspase-6 (Homo sapiens, UniProt P55212). As to the kind of experiment: inhibition of CASP6 peptide cleavage – biochemical, VEID-R110 fluorescence, cherry-pick, dose response (AID 720632).
Chain of Caspase-6 (P55212 24-179 limits assumed): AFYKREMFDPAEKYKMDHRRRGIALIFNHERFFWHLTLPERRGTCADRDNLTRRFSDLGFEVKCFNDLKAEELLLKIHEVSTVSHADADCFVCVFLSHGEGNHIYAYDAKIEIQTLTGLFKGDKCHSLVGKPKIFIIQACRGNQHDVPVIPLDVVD
Chain of Caspase-6 (P55212 194-293 limits assumed): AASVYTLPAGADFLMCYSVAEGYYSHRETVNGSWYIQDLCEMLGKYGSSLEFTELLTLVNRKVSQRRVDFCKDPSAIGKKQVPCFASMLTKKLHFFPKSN
Assay [17] deals with T3, Histone-lysine N-methyltransferase NSD2 (Homo sapiens, UniProt O96028).
T3 sequence (O96028 whole entry): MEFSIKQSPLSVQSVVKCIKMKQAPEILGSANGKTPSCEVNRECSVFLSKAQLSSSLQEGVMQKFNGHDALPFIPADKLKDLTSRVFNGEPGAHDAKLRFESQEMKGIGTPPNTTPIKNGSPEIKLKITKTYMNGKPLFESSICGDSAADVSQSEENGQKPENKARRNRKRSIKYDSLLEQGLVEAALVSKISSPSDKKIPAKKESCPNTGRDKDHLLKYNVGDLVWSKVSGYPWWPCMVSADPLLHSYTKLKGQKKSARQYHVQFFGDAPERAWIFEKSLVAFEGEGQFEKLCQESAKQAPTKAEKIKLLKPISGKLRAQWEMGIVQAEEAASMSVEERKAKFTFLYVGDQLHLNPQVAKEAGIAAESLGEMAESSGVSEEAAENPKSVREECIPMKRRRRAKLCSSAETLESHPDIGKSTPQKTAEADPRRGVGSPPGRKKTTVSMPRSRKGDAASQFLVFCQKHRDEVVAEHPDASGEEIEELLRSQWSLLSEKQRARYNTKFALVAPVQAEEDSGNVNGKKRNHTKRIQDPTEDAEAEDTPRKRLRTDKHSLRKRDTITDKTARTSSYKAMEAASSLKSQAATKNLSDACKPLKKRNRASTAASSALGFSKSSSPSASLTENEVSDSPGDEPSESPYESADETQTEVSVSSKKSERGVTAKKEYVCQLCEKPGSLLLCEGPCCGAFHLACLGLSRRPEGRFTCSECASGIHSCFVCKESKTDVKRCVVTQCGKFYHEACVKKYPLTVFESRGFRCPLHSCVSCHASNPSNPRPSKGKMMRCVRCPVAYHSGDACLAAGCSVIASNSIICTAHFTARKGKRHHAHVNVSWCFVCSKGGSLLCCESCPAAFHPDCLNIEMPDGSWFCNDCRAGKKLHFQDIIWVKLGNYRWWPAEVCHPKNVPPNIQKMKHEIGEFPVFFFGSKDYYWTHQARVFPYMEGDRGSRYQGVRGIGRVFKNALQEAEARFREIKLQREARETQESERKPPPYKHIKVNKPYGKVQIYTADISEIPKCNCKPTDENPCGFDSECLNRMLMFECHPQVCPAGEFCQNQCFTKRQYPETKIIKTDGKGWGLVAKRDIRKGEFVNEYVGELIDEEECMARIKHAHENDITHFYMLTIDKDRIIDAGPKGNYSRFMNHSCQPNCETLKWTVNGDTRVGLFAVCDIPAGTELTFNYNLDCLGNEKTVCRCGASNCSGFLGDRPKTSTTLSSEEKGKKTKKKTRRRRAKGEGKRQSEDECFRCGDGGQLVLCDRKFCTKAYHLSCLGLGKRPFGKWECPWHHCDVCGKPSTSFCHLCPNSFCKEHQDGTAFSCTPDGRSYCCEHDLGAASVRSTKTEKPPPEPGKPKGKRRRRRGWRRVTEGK
It is filed as biochemical.

A short description of assay [18]: viability loss in THP-1 monocytes – THP-1 cells, cytotoxicity control for Vif-APOBEC3G degradation inhibitor project, dose response (AID 1117359). It is filed as functional. As to conditions: THP-1.

Chain of Intestinal-type alkaline phosphatase (Homo sapiens, UniProt P09923) (P09923 whole entry): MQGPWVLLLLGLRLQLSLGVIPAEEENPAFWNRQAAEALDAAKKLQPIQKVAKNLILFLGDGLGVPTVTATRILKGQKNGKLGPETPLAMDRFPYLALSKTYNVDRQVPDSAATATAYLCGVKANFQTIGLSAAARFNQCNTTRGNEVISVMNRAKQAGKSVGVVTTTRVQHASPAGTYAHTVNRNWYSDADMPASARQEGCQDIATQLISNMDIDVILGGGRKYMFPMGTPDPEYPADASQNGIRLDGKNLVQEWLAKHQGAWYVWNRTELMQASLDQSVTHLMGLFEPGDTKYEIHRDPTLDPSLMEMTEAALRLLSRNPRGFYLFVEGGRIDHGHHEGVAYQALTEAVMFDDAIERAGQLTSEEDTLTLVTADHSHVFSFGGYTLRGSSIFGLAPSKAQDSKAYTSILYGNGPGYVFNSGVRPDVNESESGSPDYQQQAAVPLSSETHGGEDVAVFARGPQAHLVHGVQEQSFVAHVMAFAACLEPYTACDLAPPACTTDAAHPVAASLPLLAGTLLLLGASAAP
Chain of Exodeoxyribonuclease V (P04993 whole entry): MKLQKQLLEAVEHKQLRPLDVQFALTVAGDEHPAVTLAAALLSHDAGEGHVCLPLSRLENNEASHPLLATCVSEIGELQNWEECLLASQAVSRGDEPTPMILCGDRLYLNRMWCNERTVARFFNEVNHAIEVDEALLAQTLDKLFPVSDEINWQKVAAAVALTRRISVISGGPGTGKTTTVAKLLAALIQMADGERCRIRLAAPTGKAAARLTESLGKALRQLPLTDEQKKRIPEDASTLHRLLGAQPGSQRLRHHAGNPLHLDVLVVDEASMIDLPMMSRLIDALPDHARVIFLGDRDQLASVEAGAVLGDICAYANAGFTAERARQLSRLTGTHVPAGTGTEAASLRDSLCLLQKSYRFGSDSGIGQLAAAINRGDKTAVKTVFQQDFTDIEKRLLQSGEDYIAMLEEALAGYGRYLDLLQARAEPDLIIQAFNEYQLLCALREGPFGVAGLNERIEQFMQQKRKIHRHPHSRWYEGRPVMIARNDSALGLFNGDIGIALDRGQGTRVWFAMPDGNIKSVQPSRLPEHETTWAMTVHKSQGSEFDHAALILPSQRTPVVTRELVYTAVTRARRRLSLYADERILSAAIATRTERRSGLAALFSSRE
Chain of Exodeoxyribonuclease V (P07648 whole entry): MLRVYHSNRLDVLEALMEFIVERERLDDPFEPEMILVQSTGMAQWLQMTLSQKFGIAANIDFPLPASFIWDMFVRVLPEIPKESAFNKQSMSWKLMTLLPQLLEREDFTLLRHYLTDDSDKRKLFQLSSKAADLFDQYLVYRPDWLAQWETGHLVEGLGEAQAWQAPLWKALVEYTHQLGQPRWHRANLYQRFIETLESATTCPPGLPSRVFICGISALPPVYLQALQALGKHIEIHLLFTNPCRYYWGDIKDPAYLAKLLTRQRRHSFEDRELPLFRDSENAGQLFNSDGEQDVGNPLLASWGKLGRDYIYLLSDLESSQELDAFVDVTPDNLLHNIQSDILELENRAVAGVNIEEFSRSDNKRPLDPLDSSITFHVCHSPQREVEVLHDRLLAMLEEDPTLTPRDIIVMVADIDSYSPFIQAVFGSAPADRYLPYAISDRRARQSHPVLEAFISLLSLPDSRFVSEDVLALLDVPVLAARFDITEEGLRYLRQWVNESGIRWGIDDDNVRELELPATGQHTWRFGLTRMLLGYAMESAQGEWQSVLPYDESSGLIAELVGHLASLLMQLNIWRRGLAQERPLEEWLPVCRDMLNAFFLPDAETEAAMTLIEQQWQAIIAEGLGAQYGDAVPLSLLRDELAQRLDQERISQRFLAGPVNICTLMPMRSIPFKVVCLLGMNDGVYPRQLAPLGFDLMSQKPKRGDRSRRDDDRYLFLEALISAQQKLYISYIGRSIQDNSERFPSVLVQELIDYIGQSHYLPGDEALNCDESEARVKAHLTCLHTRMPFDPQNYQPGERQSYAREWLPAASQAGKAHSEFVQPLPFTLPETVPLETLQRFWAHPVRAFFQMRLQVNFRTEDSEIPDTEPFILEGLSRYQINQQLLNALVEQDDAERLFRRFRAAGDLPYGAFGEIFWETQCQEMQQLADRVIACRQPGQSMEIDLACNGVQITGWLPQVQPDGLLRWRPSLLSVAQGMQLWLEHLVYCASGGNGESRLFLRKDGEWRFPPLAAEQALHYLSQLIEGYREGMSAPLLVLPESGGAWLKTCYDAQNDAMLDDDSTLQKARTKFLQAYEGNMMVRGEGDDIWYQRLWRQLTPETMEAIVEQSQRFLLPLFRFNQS
Chain of Exodeoxyribonuclease V (P08394 whole entry): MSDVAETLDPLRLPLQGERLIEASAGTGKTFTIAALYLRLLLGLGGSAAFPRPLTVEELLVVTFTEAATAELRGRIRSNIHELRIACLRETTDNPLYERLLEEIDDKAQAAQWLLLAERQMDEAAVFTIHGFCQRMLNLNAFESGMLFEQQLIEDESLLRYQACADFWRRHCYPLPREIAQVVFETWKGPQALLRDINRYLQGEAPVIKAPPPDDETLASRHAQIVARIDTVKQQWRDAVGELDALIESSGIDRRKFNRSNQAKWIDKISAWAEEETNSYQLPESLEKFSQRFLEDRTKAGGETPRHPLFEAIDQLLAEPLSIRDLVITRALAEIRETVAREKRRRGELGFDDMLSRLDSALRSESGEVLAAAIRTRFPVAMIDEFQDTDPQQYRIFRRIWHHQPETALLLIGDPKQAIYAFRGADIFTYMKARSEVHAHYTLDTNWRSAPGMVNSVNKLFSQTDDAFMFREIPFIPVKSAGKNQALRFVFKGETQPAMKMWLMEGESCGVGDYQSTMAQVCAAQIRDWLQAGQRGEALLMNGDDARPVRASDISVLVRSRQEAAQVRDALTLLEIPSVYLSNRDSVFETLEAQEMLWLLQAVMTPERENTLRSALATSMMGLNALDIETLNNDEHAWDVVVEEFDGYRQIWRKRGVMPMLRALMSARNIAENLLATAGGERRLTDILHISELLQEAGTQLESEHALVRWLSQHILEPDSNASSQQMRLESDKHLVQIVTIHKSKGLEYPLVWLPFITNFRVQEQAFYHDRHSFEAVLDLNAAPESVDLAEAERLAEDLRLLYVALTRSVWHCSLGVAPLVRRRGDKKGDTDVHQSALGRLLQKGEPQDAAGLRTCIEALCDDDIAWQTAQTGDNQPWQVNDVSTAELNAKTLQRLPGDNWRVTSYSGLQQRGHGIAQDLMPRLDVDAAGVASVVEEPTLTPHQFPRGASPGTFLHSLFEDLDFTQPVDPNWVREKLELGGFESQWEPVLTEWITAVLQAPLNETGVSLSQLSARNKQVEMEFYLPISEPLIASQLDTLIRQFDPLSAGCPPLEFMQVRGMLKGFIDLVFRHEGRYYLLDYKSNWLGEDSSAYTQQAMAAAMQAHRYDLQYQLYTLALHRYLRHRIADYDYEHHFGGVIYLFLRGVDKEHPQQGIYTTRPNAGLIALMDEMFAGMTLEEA

Regarding `COc1ccc(NS(=O)(=O)c2ccc(NC(C)=O)cc2)cc1OC`, the IC50 was 3.44 µM (active) in assay [1], 2.22 µM (active) in assay [2] and 12 µM (active) at Protein Wnt-3a.

What is called AC50 is the concentration giving half of the maximal activity seen. Consider `O=C(CSc1[nH]cnc2ncnc1-2)c1ccc(Cl)cc1`, for which the CC50 in assay [3] is > 40 µM (active). Moreover, the IC50 was > 119 µM (inactive) on Exodeoxyribonuclease V and 61.1 µM (inactive) in [5]. For the same compound, in assay [4], the AC50 is 2.81 µM (active).

In the case of `CS(=O)(=O)N(CC(=O)NCc1ccco1)c1ccccc1Cl`, in assay [6], the AC50 is 18.4 µM (active).

`Cc1ccc(OCCC(=O)NCCc2ccc(S(N)(=O)=O)cc2)cc1`: in assay [7], the IC50 was > 32 µM (inactive).

The term EC50 denotes the concentration giving half of the maximal effect. With `CC(C)Cc1nnc(NC(=O)COc2ccc(F)cc2Cl)o1`, the EC50 in assay [8] is 10 µM (active).

In the case of `O=[N+]([O-])c1ccccc1NC(=S)N/N=C/c1ccc(O)c(O)c1`, the CC50 in assay [9] was 11.7 µM (active); in the assay with Vero, 22.8 µM (active); in [18], 25.5 µM (active). The IC50 was 216 nM (active) in [10]; 1.53 µM (active) in assay [11]; > 100 µM (inactive) in [12]; 23.5 µM (inactive) in “cells [13]”; 7.2 µM (active) in assay [15]. The EC50 is 4.15 µM (active) in [14] and > 29.9 µM (inactive) in the assay “cells [16]”. The values for the AC50 (at Caspase-6; in assay [17]) were 1.56 µM (active) and 1.34 µM (active), respectively.
